This note sets out measurements from article PMC8395767, “Worsening of the Toxic Effects of (±)Cis-4,4′-DMAR Following Its Co-Administration with (±)Trans-4,4′-DMAR: Neuro-Behavioural, Physiological, Immunohistochemical and Metabolic Studies in Mice” (International Journal of Molecular Sciences, 2021).

“And” between values parts separate entries of the source, which are not always exact repeats. Identical values can stand only once. Marks after values point to notes of the source that are not given here.

One data set deals with mice. The experiment in a line: Core temperature (rectal probe), hyperthermia. In kind it is in vivo. The protocol:
The effects of (±)cis-4,4′-DMAR, (±)trans-4,4′-DMAR and their co-administration were investigated by a protocol widely used in studies of “safety pharmacology” for the preclinical characterization of new molecules in rodents. This protocol includes a series of observational behavioural tests carried out in a consecutive manner that monitor the animal responses up to 5 h after compound injections. In the present study, we reported the observation of physiological (sweating, salivation, core temperature) and neuro-behavioural (detection of psychomotor agitation, spontaneous and stimulated aggressiveness, convulsions) changes occurring in mice after injection of (±)cis-4,4′-DMAR, (±)trans-4,4′-DMAR and their co-administration. Before pharmacological treatment the mouse was placed on a square plate (30 cm× 30 cm) raised from the ground (20 cm) and left free to move on the plate for 10 min (habituation period). The animal was then injected with the vehicle, substances alone ((±)cis-4,4′-DMAR or (±)trans-4,4′-DMAR) or in cis + trans co-administration and placed on the plate. From this moment, the recording time of the physiological and neuro-behavioural responses started, and these were detected in 5-min sessions.
After the first 5 min, the animal was removed from the plate; the body core temperature was then measured, and the aggression tests were performed. The 5-min observation period was repeated at 15–30–60–90–120–180–240–300. Psychomotor agitation in the mouse was not simply related to an increase in spontaneous locomotion itself, but by an “unusual hyperactivity” which was characterised by rapid and sudden horizontal displacements in all directions, sustained turning behaviour, involuntary falls from the high plate during the evaluation of the tests, stereotyped movements and rearing activity. Mouse sweating and salivation were reported only if present or not. The core temperature was determined using a probe (1 mm diameter) that was gently inserted after lubrication with liquid Vaseline into the rectum of the mouse (to about 2 cm) and left in position until the temperature stabilised (about 10 s). The probe was connected to a digital thermometer. Spontaneous aggressive response was measured based on the number of times a mouse bit a grey cloth put in front of its snout. During the test, each mouse was free to move within the cage. In the case of stimulated aggressiveness, each mouse was manually restrained and held in a supine position following which an object was brought near the mouth. For both spontaneous and stimulated aggressive behaviour tests, a grey cloth was placed in front of the nose of each mouse 10 consecutive times (score 0/10 not aggressive, score 10/10 very aggressive). Convulsions were defined as a loss of righting reflexes for at least 5 s, combined with the presence of body tremors and clonic or tonic limb movements. Deaths caused by 4-4’-DMAR injection occurring during the observation period (5 h) were also reported as frequency (%) and time of death (min). Experiments were conducted inside the LARP (Centralised Preclinical Research Laboratory, University of Ferrara, Ferrara, Italy) in a thermo-stated (temperature 20–22 °C, humidity about 45–55%) and light controlled (about 150 lux) room, in which there was a background noise of about 40 ± 4 dB. The experiments, conducted in blind by trained observers working together in pairs, were videotaped and eventually analysed off-line by a different trained operator. The experiments were performed between 8:30 a.m. and 2:00 p.m.
Sweating and salivation were expressed as frequency (e.g., % of animals that developed symptoms); psychomotor agitation was expressed as frequency (% of animals) and duration (total time in mins). Core temperature values were expressed as the difference between control temperature (before injection) and temperature following drug administration (Δ°C). […]

For another data set, the system named is 3-nitrotyrosine (NT). The experiment in a line: Immunohistochemistry, frontal cortex: NT. In kind it is in vivo, mice. Conditions: vs control. The source says:
(§1) Following the acute death or the sacrifice of the animals (after 5-h observation period by dislocation of the spine), brains were taken. These were fixed in 4% buffered formalin and then sampled and incorporated into the paraffin (Leica ASP300 processor, Histoline TEC2900 incorporator; Leica Microsystems Srl, Buccinasco, Milano, Italy). Subsequently, the cut (performed with the Leica HistoCore autocut microtome; Leica Microsystems Srl, Buccinasco, Milano, Italy) was designed to create sections with a thickness of 5 µm for each sample.
(§2) On 5-µm-thick paraffined […] sections, we evaluated the expression of a panel of markers: heat shock proteins (HSP27, HSP70, HSP90), SMAC/DIABLO, NF-kB, iNOS, NOX-2, NT, 8-OHDG.
(§3) We used a detection system composed of a biotinylated secondary antibody and HRP-conjugated streptavidin (4plus HRP Universal Detection, Biocare Medical). 3′-,3Diaminobenzidine (DAB) and H2O2 (Betazoid DAB Chromogen Kit, Biocare Medical, Concord, CA, USA) were used as chromogen/substrate. The subsequent counterstaining with haematoxylin–eosin allowed the visualization of cell morphology and nuclei. Once this procedure was completed, the slides were mounted and observed under optical microscope. In the pictures (sections of the frontal cortex; Figure 3, Figure 4 and Figure 5) to evaluate the variation in the expression of markers (Smac, NOX2, iNOS, 8-OHdG, NT, HSP27, HSP70, HSP90) following treatments, the change in intensity of brown colour (staining of the immunohistochemical technique) in the control and treated tissue was measured. Quantification of Smac, NOX2, iNOS, 8-OHdG, NT, HSP27, HSP70 and HSP90 positive-stained areas was performed by the ImageJ software (imagej.nih.gov/ij/ Accessed date 12 May 2020). One image for each animal of the different experimental groups was processed. Positivity was expressed as an extension of the stained analysed area.
Sweating and salivation were expressed as frequency (e.g., % of animals that developed symptoms); psychomotor agitation was expressed as frequency (% of animals) and duration (total time in mins). Core temperature values were expressed as the difference between control temperature (before injection) and temperature following drug administration (Δ°C). Aggressiveness was expressed as frequency (% of animals which become aggressive) and score (number of bites). Convulsions were expressed as frequency (% of animals that developed seizure), episodes (e.g., number of seizure events), latency of first episode (sec.) and duration of each episode (sec.). Lethality was expressed as frequency (% of animals that died during the observation period (5 h) or during the following 24 h). The statistical analysis of the effects of the individual substances in different concentrations were performed using a one-way ANOVA followed by a Bonferroni test for multiple comparisons. A Student’s t-test was used to determine statistical significance (p < 0.05) between two groups. Regarding immunohistochemical analysis, positivity was expressed as the extension of stained analysed area. Results were expressed as means ± mean standard error (SEM). Data were analysed by one-way analysis of variance (ANOVA), followed by Tukey’s post-hoc test. For all tests, a p value of <0.05 was considered statistically significant. All statistical analyses were performed using GraphPad Prism 8 software for Windows (La Jolla, CA, USA).

In a further data set the test system is HSP27. Put plainly: Immunohistochemistry, frontal cortex: HSP27. In kind it is in vivo, mice.
Source text: as §1, §2
as §3, with “One image for each animal of the different experimental groups was processed.” left out
Sweating and salivation were expressed as frequency (e.g., % of animals that developed symptoms); psychomotor agitation was expressed as frequency (% of animals) and duration (total time in mins). Core temperature values were expressed as the difference between control temperature (before injection) and temperature following drug administration (Δ°C). Aggressiveness was expressed as frequency (% of animals which become aggressive) and score (number of bites). Convulsions were expressed as frequency (% of animals that developed seizure), episodes (e.g., number of seizure events), latency of first episode (sec.) and duration of each episode (sec.). Lethality was expressed as frequency (% of animals that died during the observation period (5 h) or during the following 24 h). […] Regarding immunohistochemical analysis, positivity was expressed as the extension of stained analysed area. Results were expressed as means ± mean standard error (SEM). […]

The subject of the next data set is NF-kB. The experiment in a line: Immunohistochemistry, frontal cortex: NF-kB. In kind it is in vivo, mice.
Source text: as §1, §2
We used a detection system composed of a biotinylated secondary antibody and HRP-conjugated streptavidin (4plus HRP Universal Detection, Biocare Medical). […] In the pictures (sections of the frontal cortex; Figure 3, Figure 4 and Figure 5) to evaluate the variation in the expression of markers (Smac, NOX2, iNOS, 8-OHdG, NT, HSP27, HSP70, HSP90) following treatments, the change in intensity of brown colour (staining of the immunohistochemical technique) in the control and treated tissue was measured. Quantification of Smac, NOX2, iNOS, 8-OHdG, NT, HSP27, HSP70 and HSP90 positive-stained areas was performed by the ImageJ software (imagej.nih.gov/ij/ Accessed date 12 May 2020). […]

The mark [1] stands for this setting: 10 mg/kg i.p., n=4 mice (animals of the urine excretion study).

Consider `Cc1ccc(C2OC(N)=NC2C)cc1` (stereo not drawn) [cis-4,4’-DMAR, 4-methyl-5-(4-methylphenyl)-4,5-dihydrooxazol-2-amine], for which the “Hyperthermia Variation (Δ°C)” value was −0.18 ± 0.14 Δ°C in the data set with mice (0.1 mg/kg i.p., n=6 mice); −0.22 ± 0.17 Δ°C with mice (1 mg/kg i.p., n=6 mice); −0.34 ± 0.22 Δ°C in the data set with mice (3 mg/kg i.p., n=6 mice); −0.21 ± 0.15 Δ°C with mice (setting [1]); −0.41 ± 0.13 Δ°C with mice (10 mg/kg i.p., n=6 mice); 1.52 ± 0.11 ^c Δ°C in the data set on mice (30 mg/kg i.p., n=6 mice). Moreover, the “Hyperthermia Variation (Δ°C)” value was 1.52 ± 0.11 Δ°C with mice (30 mg/kg i.p., n=6 mice, listed as (±)cis-4,4′-DMAR); 2.22 ± 0.12 ^c Δ°C and 2.22 ± 0.12 Δ°C in the data set on mice (60 mg/kg i.p., n=6 mice); 2.22 ± 0.12 Δ°C in the data set with mice (60 mg/kg i.p., n=6 mice, listed as (±)cis-4,4′-DMAR). The “Hyperthermia Latency” value with mice (30 mg/kg i.p., n=6 mice) is listed as 25 ± 0.25 min; with mice (60 mg/kg i.p., n=6 mice) it was 7.12 ± 0.23 min. The “Hyperthermia Latency (min)” value with mice (60 mg/kg i.p., n=6 mice) is listed as 7.12 ± 0.23 ^d min. In addition, in the data set on mice (lower doses 0.1–10 mg/kg i.p., mice), the Hyperthermia entry was “ineffective”. Further, the “Immunoreactivity of 3-nitrotyrosine (NT) in the frontal cortex” value was “reduced” in the data set with 3-nitrotyrosine (NT) (10 mg/kg); “increased” with 3-nitrotyrosine (NT) (30 mg/kg); “statistically significant increase” in the data set on 3-nitrotyrosine (NT) (30 mg/kg, listed as (±)cis); “did not affect” in the data set on 3-nitrotyrosine (NT) (60 mg/kg). For the same compound, the “Immunoreactivity of HSP27 in the frontal cortex” value with HSP27 (10 mg/kg alone) is “ineffective”; in the data set on HSP27 (30 and 60 mg/kg, vs control) it was “increased”; in the data set on HSP27 (30 and 60 mg/kg, vs control, listed as (±)cis), “overexpressed”. Further, in the data set with NF-kB (10, 30 and 60 mg/kg, vs control), the “Immunoreactivity of NF-kB in the frontal cortex” value is given as “increased”.

`Cc1ccc(C2OC(N)=NC2C)cc1` (stereo not drawn) [trans-4,4’-DMAR, 4-methyl-5-(4-methylphenyl)-4,5-dihydrooxazol-2-amine]: the “Hyperthermia Variation (Δ°C)” value with mice (setting [1]) is −0.32 ± 0.1 Δ°C; in the data set on mice (30 mg/kg i.p., n=6 mice), −0.37 ± 0.13 Δ°C; in the data set on mice (60 mg/kg i.p., n=6 mice), −0.35 ± 0.16 Δ°C. The “Immunoreactivity of 3-nitrotyrosine (NT) in the frontal cortex” value in the data set on 3-nitrotyrosine (NT) (30 mg/kg) is on record as “ineffective”. Further, the “Immunoreactivity of HSP27 in the frontal cortex” value with HSP27 (30 mg/kg alone) is on record as “ineffective”. The “Immunoreactivity of NF-kB in the frontal cortex” value in the data set with NF-kB (30 mg/kg alone) is reported as “ineffective”.
